Legend:
FtFBPaseII [1] = biological target: T1, FtFBPaseII (Francisella tularensis, UniProt Q5NEJ8)
T1 construct: gene gplX

FtFBPaseII [2] = biological target: T1, FtFBPaseII; experiment: biochemical; conditions: read-out: % inhibition at 1 mM

T1 sequence (Q5NEJ8 1-328): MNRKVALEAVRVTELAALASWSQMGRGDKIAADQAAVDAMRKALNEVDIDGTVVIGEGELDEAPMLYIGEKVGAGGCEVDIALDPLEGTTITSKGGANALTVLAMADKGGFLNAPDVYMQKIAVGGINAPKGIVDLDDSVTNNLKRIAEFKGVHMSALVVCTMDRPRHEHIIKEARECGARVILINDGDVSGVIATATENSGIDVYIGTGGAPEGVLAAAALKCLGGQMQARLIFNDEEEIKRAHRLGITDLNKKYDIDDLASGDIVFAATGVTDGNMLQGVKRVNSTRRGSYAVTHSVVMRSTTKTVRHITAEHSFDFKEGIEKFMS

SMILES | % inhibition at 150 μM (FtFBPaseII [1]) | inhibition at 1000 µM (FtFBPaseII [2])
O=P(O)(O)O [phosphate] | 69% | –
Nc1ncnc2c1ncn2[C@@H]1O[C@H](COP(=O)(O)OP(=O)(O)O)[C@@H](O)[C@H]1O [Adenosine diphosphate] | – | 28%

Source: article PMC5698383 (Applied Biochemistry and Biotechnology, 2017)
